{
  "source": "paper PMC10272835",
  "about": "“Exploration of T cell immune responses by expression of a dominant-negative SHP1 and SHP2” (Frontiers in Immunology, 2023)",
  "key": {"SHP2": {"test_system": "SHP2", "design": "method as in PMID 30972278", "conditions": "following activation; ref [29]; cited from earlier work"}, "SupT1-GD2-PDL1 cells [1]": {"test_system": "SupT1-GD2-PDL1 cells", "assay": "CAR T cytotoxicity, dSHP2 versus SHP2 knock-out", "type": "cell-based", "conditions": "GD2 CAR alongside PD1", "procedure": "(§1) Transduced T cells were depleted of CD56 cells using the EasySep Human CD56 positive selection kit (Stemcell Technologies; 17855) and rested for 24 hours. Transduced cells were co-cultured with target cells at the indicated effector: target (E:T) ratios with target cells remaining constant at the indicated number of target cells/co-culture. At the end of the co-culture period target cells were enumerated by flow cytometry and cytotoxicity calculated as a percentage of the number of target cells recovered from co-cultures with non-transduced (NT) T cells.\n(§2) Expression of the SHP2 (PTPN11) gene was disrupted by Cas9-mediated indel formation. For each sgRNA, 2 samples of 5x10^6 PBMCs were nucleofected in […] of P3 buffer (Lonza; V4XP-3024) with 125 pmol of Alt-R Sp HiFi Cas 9 nuclease v3 (IDT; 108210621) complexed with 187.5 pmol of the PTPN11 sgRNA ([…]) or a non-targeting sgRNA ([…]; Synthego) using pulse code EH-115. Complexing of Cas9 and the sgRNA was carried out at ambient temperature for 10 minutes prior to nucleofection. […] PBMCs were transduced with retroviral constructs 24 hours after nucleofection. PBMCs were collected for genotyping, Western blotting and functional assessment 6 days after nucleofection.\nSupplementary Figure 5: Comparison of dSHP2 expression with genomic excision of SHP2. […]"}, "SHP2 protein": {"test_system": "SHP2 protein", "assay": "Western blot of SHP2 after gene disruption", "type": "cell-based", "conditions": "after 6 days, 4 donors", "procedure": "as §2\nCells were stimulated as indicated then 0.5x10^6 cells were harvested and pelleted at 400xg for 2 minutes. The pellets were washed with ice-cold PBS, centrifuged as before and lysed in 50μl of 1x RIPA buffer (Millipore) supplemented with 1x protease and phosphatase inhibitor (Abcam). The cells were incubated on ice for 15 minutes, vortexed and incubated for further 15 minutes. The lysate was clarified by centrifuging the cells at 13000xg for 10 minutes at 4°C, protein concentration was determined using the BCA Protein assay Kit (Pierce) and stored at -80°C until use. Prior to gel electrophoresis lysates were mixed with NuPAGE™ LDS Sample Buffer (4X) (Invitrogen™) and heated at 95°C for 10 minutes. […]"}, "SHP2 (PTPN11) gene": {"test_system": "SHP2 (PTPN11) gene", "assay": "SHP2 gene disruption (ICE)", "type": "cell-based", "conditions": "Cas9 RNP nucleofection of T cells, after 6 days; 4 donors", "procedure": "as §2\nGenomic DNA was extracted from PBMCs using the GenElute Blood Genomic DNA Kit (Sigma; NA2010) according to the manufacturer’s instructions. The sequence flanking the SHP2 sgRNA target site was amplified by PCR from 100 ng of genomic DNA using Q5 DNA polymerase (NEB; M0491L) and the primers, SHP2_forward 5’-[…]-3’ and SHP2_reverse 5’-[…]-3’ (IDT). The PCR products were Sanger sequenced (Source Bioscience) and indel formation and knockout efficiencies determined by ICE (Synthego), comparing SHP2-edited and non-target-edited sequences to an unedited control."}, "SupT1-GD2-PDL1 cells [2]": {"test_system": "SupT1-GD2-PDL1 cells", "assay": "CAR T cytotoxicity, dSHP2 versus Pembrolizumab", "type": "cell-based", "conditions": "Pembrolizumab 2.5, 5, 10 µg/mL, E:T 1:8, 72 hours, 3-6 replicates", "procedure": "as §1\n(§3) Supplementary Figure 6: Comparison of dSHP2 with Pembrolizumab. A) T cells expressing RQR8 and the GD2 CAR alone or in combination with PD1 and/or dSHP2 were incubated with 1x10^5 SupT1 cells lacking antigen expression (SupT1-NT) or engineered to express GD2 alone (SupT1-GD2) or in the presence of PDL1 (SupT1-GD2-PDL1) at an effector:target ratio of 1:8 for 72 hours. Pembrolizumab was included in co-cultures with T cells expressing PD1 and the GD2 CAR at the indicated concentrations. Surviving target cells were enumerated and normalized to the respective co-cultures with non-transduced T cells (100%). B) Supernatants from co-cultures in (A) were analyzed for IFNγ by ELISA. C-D) T cells were labelled with Cell Trace Violet and co-cultured with 2x10^5 SupT1 target cells at an E:T ratio of 1:4 for 5 days and CAR T cells enumerated. […]"}, "[3]": {"test_system": "CAR T cells with SupT1-GD2-PDL1 target cells", "assay": "CAR T proliferation, dSHP2 versus Pembrolizumab", "type": "cell-based", "conditions": "Pembrolizumab 2.5, 5, 10 µg/mL, E:T 1:4, 5 days", "procedure": "PBMCs were labelled with Cell Trace Violet (CTV) according to manufacturer’s instructions (ThermoFisher Scientific; C34557) and cultured with 0.5x10^5 target cells at 1:1 E:T ratio for 96 hours. Numbers of CD3^+ RQR8+ T cells and CTV MFI were assessed by flow cytometry.\nas §3, with “enumerated. Bars represent the mean of 3-6 biologically independent replicates.” for “enumerated.”"}, "[4]": {"test_system": "SupT1-GD2-PDL1 target cells", "assay": "IFNγ release, dSHP2 versus Pembrolizumab", "type": "cell-based", "conditions": "GD2 CAR; Pembrolizumab 2.5, 5, 10 µg/mL; E:T 1:8, 72 hours", "procedure": "as §3, with “enumerated. Bars represent the mean of 3-6 biologically independent replicates.” for “enumerated.”"}, "SupT1-GD2 cells": {"test_system": "SupT1-GD2 cells", "assay": "Effect of inhibitory ligand expression on GD2 CAR cytotoxicity", "type": "cell-based", "conditions": "ligand expressed on SupT1-GD2, E:T 1:4 and 1:8, 6 days", "procedure": "as §1\nFigure 3 Interaction of dSHP2 with immunoinhibitory T cell receptors. (A-E) Binding of dSHP2 to phosphorylated peptides derived from the endodomains of immunoinhibitory T cell receptors. Plates were coated with phosphorylated or non-phosphorylated peptide at the indicated concentration and the purified, His-tagged SH2 domains of dSHP2 were allowed to bind overnight. Binding was measured through detection of the His tag. (F) Effect of inhibitory ligand expression on target cells on CAR T cytotoxicity. […] Supernatants were harvested from these co-cultures and levels of IFNγ measured by ELISA (I). […] Statistical significance was measured by two-way ANOVA. […]"}, "[5]": {"test_system": "tumor cell lines (SupT1, Nalm6, Raji, Skov3, CHLA, H446)", "assay": "Upregulation of endogenous PDL1 by IFNγ", "type": "cell-based", "conditions": "IFNγ 10-400 ng/ml, 24 hours; flow cytometry", "procedure": "In order to assess the effect of upregulation of endogenous PDL1 on tumour cells, cell lines were incubated for 24 hours with increasing amounts of IFNγ (10, 20, 40, 60, 80, 100, 200, 400 ng/ml) and PDL1 levels were assessed by flow cytometry.\n(§4) SupT1 Nalm6 Raji Skov3 CHLA H446\n(§5) Supplementary Figure 4: Effect of endogenous PDL1: A) Tumor cell lines were treated with […]\n(§6) for PDL1 expression. B-D) The indicated tumor cell lines were treated with 100ng/ml IFNγ for 24 hours or left untreated following which 2x10^5 tumor cells were co-cultured with the indicated CAR T cells at an effector:target ratio of 1:1 for 48 hours (Skov3-GD2) or 96 hours (H446, CHLA255) and tumor cell killing assessed by flow cytometry and normalised to respective co-cultures with non-transduced (NT) T cells (100%). Points represent individual […]"}, "[6]": {"test_system": "Skov3-GD2, H446, CHLA255 cells", "assay": "Target cell killing after IFNγ treatment", "type": "cell-based", "conditions": "100ng/ml IFNγ 24 hours; E:T 1:1, 48 hours (Skov3-GD2) or 96 hours (H446, CHLA255)", "procedure": "as §4, §5, §6"}},
  "data": [
    {"compound": "CC1(N)CCN(c2cnc(-c3cccc(Cl)c3Cl)c(N)n2)CC1", "note": "[SHP099]", "values": [
      {"measurement": "effect on central memory population, effector molecule expression", "setting": "SHP2", "result": "increased central memory population and increased expression of granzyme B, perforin, IFNγ, TNFα and FasL"},
      {"measurement": "effect on proliferation or viability", "setting": "SHP2", "result": "no effect on proliferation or viability"}
    ]},
    {"compound": "SHP2-directed sgRNA: PTPN11 sgRNA (GAGACUUCACACUUUCCGUU) complexed with Cas9 nuclease (complexed with Cas9 nuclease, further chemistry not given here)", "values": [
      {"measurement": "relief of PDL1-mediated inhibition of CAR T cells", "setting": "SupT1-GD2-PDL1 cells [1]", "result": "substantially less"},
      {"measurement": "SHP2 protein level", "setting": "SHP2 protein", "result": "significant decrease in SHP2 protein"},
      {"measurement": "indel formation", "setting": "SHP2 (PTPN11) gene", "result": "greater than 80%"}
    ]},
    {"compound": "pembrolizumab: antibody blocking PD1", "values": [
      {"measurement": "restoration of killing, compared with Pembrolizumab", "setting": "SupT1-GD2-PDL1 cells [2]", "result": "comparable effects"},
      {"measurement": "restoration of proliferation, compared with Pembrolizumab", "setting": "[3]", "result": "comparable effects"},
      {"measurement": "restoration of IFNγ release, compared with Pembrolizumab", "setting": "[4]", "result": "slightly greater restoration of IFNγ secretion at the highest concentration"}
    ]},
    {"compound": "CD80: inhibitory ligand of CTLA4 expressed on SupT1-GD2 cells", "values": [
      {"measurement": "effect of target cell ligand expression on CAR T cytotoxicity", "setting": "SupT1-GD2 cells", "result": "mild enhancement of CAR T cytotoxicity"}
    ]},
    {"compound": "IFNγ: exogenous IFNγ used to upregulate PDL1 on tumor cell lines", "values": [
      {"measurement": "PDL1 upregulation", "setting": "[5]", "result": "did upregulate PDL1 in some cell lines"},
      {"measurement": "target cell killing with exogenous IFNγ", "setting": "[6]", "result": "increased target cell killing"}
    ]}
  ]
}
